ChEMBL document CHEMBL3826956, “Cholinesterase inhibitory activity of isoquinoline alkaloids from three Cryptocarya species (Lauraceae)” (Bioorg Med Chem, 2016)

Tests used:
[1] = biological target: T1, Cholinesterase (Equus caballus, UniProt P81908); test: Inhibition of equine serum BChE preincubated for 15 mins followed by addition of S-butyrylthiocholine chloride as substrate measured after 30 mins by Ellman's microplate assay
[2] = biological target: Acetylcholinesterase (Electrophorus electricus) (UniProt O42275); test: Inhibition of electric eel AChE at 100 ug/ml preincubated for 15 mins followed by addition of acetylthiocholine iodide as substrate measured after 30 mins by Ellman's microplate assay
Chain of Acetylcholinesterase (Electrophorus electricus) (O42275 24-633 limits assumed): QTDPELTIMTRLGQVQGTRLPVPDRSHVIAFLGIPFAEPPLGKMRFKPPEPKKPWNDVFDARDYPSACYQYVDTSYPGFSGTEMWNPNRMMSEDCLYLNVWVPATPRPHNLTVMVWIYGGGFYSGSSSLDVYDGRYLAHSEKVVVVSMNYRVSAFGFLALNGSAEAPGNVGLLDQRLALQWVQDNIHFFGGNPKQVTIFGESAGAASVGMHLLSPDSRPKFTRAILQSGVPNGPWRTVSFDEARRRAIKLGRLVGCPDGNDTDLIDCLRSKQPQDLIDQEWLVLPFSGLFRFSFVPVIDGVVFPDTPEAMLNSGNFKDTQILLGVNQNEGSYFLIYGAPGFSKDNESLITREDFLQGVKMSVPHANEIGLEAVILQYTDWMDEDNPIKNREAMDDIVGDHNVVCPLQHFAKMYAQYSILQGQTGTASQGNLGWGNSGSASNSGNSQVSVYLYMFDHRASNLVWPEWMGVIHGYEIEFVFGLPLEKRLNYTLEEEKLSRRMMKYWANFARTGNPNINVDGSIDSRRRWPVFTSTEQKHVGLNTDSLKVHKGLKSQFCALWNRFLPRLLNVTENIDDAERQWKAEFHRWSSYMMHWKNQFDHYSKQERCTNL

[3] = biological target: Cholinesterase (Equus caballus) (UniProt P81908); test: Inhibition of equine serum BChE at 100 ug/ml preincubated for 15 mins followed by addition of S-butyrylthiocholine chloride as substrate measured after 30 mins by Ellman's microplate assay
Chain of Cholinesterase (Equus caballus) (P81908 whole entry): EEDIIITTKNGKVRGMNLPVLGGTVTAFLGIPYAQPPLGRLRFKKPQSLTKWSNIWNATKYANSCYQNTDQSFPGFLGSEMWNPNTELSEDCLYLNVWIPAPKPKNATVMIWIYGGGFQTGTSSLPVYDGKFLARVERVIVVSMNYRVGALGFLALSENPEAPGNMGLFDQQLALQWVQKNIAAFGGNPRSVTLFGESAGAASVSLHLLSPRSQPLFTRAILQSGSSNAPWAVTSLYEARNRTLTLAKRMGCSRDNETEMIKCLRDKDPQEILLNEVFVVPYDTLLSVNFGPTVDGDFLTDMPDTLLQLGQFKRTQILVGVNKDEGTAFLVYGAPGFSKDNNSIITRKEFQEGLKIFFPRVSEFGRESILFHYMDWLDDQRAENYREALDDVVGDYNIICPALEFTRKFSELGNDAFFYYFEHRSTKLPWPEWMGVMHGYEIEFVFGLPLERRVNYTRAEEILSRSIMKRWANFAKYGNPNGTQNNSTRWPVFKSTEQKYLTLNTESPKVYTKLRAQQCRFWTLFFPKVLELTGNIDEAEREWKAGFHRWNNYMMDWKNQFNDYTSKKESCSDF

[4] = biological target: T1, Cholinesterase; test: Mixed-type inhibition of equine serum BChE preincubated for 15 mins followed by addition of S-butyrylthiocholine chloride as substrate measured after 30 mins by Lineweaver-Burk plot analysis
[5] = Selectivity ratio, ratio of IC50 for electric eel AChE to equine serum BChE
[6] = biological target: Acetylcholinesterase (Electrophorus electricus, UniProt O42275); test: Inhibition of electric eel AChE preincubated for 15 mins followed by addition of acetylthiocholine iodide as substrate measured after 30 mins by Ellman's microplate assay
Chain of Acetylcholinesterase (O42275 whole entry): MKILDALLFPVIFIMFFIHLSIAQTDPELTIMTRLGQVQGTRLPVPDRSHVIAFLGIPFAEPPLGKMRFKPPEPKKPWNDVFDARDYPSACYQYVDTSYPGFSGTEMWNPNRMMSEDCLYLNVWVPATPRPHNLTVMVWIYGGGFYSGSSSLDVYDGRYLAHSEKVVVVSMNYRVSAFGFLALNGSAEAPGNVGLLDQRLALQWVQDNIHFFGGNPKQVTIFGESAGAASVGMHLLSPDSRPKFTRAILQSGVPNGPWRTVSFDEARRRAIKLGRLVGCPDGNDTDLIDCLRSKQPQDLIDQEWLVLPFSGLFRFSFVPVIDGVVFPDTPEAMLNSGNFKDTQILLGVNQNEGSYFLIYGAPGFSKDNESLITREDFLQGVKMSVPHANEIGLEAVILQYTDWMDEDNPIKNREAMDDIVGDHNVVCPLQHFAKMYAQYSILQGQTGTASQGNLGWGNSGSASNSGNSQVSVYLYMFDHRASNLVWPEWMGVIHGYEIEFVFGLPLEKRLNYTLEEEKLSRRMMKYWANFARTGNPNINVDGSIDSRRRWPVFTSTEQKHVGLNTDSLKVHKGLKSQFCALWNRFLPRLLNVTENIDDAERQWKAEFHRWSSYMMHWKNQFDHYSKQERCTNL

[7] = Selectivity ratio, ratio of IC50 for equine serum BChE to electric eel AChE

T1 sequence (P81908 whole entry): as the sequence (P81908 whole entry) above

Row | SMILES | IC50 [1] [µM] | inhibition [2] [%] | inhibition [3] [%] | Ki [4] [µM] | Ratio IC50 [5] | IC50 [6] [µM] | Ratio IC50 [7]
1 | COc1cc(CCN(C)C)c2ccc3ccccc3c2c1OC | 19.3 | 2.06 | 83.9 | – | – | – | –
2 | COc1c(OC)c(OC)c2c(ccc3ccccc32)c1CCN(C)C | 3.95 | 31.6 | 95.2 | 6.72 | – | – | –
3 | COc1cc2c(cc1O)C[C@@H]1NCCc3cc(OC)c(OC)c-2c31 | – | 17.5 | 22.6 | – | – | – | –
4 | COc1cc2c3c(c1O)C1(CCC(O)CC1)CC3NCC2 (stereo not given) | 288 | 27.9 | 52.1 | – | – | – | –
5 | COc1cc2c(cc1O)CCN(C)C2Cc1ccc(O)cc1 (stereo not given) | – | 14.9 | 37.3 | – | – | – | –
6 | COc1ccc(C2=C(c3ccc(O)cc3)CN3CCC[C@@H]3C2)cc1OC | 167 | 51.4 | 59.4 | – | 1.21 | 202 | 0.83
7 | COc1cc2c(cc1O)C[C@H]1c3c(cc(OC)c(OC)c3-2)CCN1C | 219 | 38.8 | 51 | – | – | – | –
8 | COc1ccc(C[C@H]2c3cc(O)c(OC)cc3CCN2C)cc1O [(S)-RETICULINE] | 65 | 53 | 84.1 | – | 4.63 | 301 | 0.22
9 | COc1cc2c3c(c1OC)-c1cc4c(cc1C[C@@H]3NCC2)OCO4 | 94.4 | 50.4 | 75.8 | – | 2.18 | 206 | 0.46
